# Experimental data reported in patent publication EP2735303A1, “Hair growth compositions and methods” (Pilosciences, priority 2012, dated 2014).
# Assays:
# [1] = test system: isolated human hair follicles; assay: Hair growth of isolated human hair follicles maintained in vitro (morphometric study); format: cell-based; settings: versus no application and Minoxidil 2% 10 µmol; application 2h00 at 37°C; length at D0, D4, D6, D8
# Procedure: Hair growth is measured using standard morphometric studies on isolated human hair follicles maintained in vitro (Philpott, 1999). Hair follicles are micro-dissected in a human scalp and maintained in a culture medium. Hair follicles in anagen phase are selected for the study. Each tested group is composed of 10-12 hair follicles.
# [2] = test system: human skin explants; assay: Morphology of the hair follicle in human skin explants ex vivo after topical application (histology); format: cell-based; design: key to Upper part (quotation of morphological alterations) / Sebaceous gland (quotation of morphological alterations): -: no alteration; +: weak; ++: moderate; +++: significant; ++++: very significant; +++++: strong
# Procedure: Anti-HGP antibodies were produced (see example A) or obtained from commercially available sources, and investigated for their ability to inhibit body hair growth ex vivo using human skin explants.
# The activity of the antibodies was assessed based on their effect on the morphology and growth of the body hair.
# The activity of keratinase A (Sigma) was investigated in parallel. Eflornithin (Calbiochem) was used as a reference.
# 40 explants of a diameter of about 11 mm (± 1 mm) were obtained by abdominoplasty from 2 men. The explants were placed in survival in the BEM (BIO-EC's Explants Medium) at 37° C in a humid atmosphere enriched with 5% CO2.
# The treatment was performed at D0, D1, D4, D6 and D8 by topical application of 5 µl of diluted antibody used at final concentrations of 30 to 100 µg/mL in PBS. Eflornithin was used at a concentration of 100 mg/mL and keratinase at 20 mg/mL. A negative control experiment was performed using PBS only.
# At D0, T0 lot explants were removed and cut in half. Half was fixed in buffered formalin and the other half was frozen at -80 ° C. A D8, 2 explants from each batch were taken and treated in the same manner.
# After 24 hours of fixation in buffered formalin, the samples were dried and impregnated with paraffin using an automatic dehydration Leica TP 1010 according to the procedure MO-H-149, according to our procedure using a station coating Leica EG 1160. Sections of 5 microns were performed, using a microtome kind Minot, Leica RM 2125 and mounted on silanized glass slides Superfrost ® plus. Microscopic observations were performed by microscopy optical transmission. The shots were taken with a Leica Orthoplan DMLB or with a digital camera Olympus DP72 driven software acquisition and archiving Olympus CellD. The morphology was examined on paraffin sections stained with Masson's trichrome Goldner variant.
structure (smiles),measurement,setting,value
"NCCC[C@](N)(C(=O)O)C(F)F [R1, α-difluoromethylornithine]",Hair growth compared to Control Group 0 and to Control Group M,[1],significant hair growth retardation
same,Bulb: morphology,"[2]; D8, topical application",comparable to that observed in the untreated group D8
same,Lower part of the hair follicle: morphology,"[2]; D8, topical application",very slight cell alterations
same,"Midsection, sebaceous glands: morphology of inner and outer root sheaths","[2]; D8, topical application",clear cellular alterations
same,"Upper part, near the infundibulum: morphology of the epithelial sheaths","[2]; D8, topical application",sharp cellular alterations
same,morphology of the epidermis,"[2]; D8, topical application",slightly altered with a slight spongiosis
same,Sebaceous gland (quotation of morphological alterations),"[2]; sebaceous gland region of the hair follicle, topical application D0, D1, D4, D6, D8, antibodies 30 to 100 µg/mL in PBS, Eflornithin 100 mg/mL, keratinase 20 mg/mL, D8",++++
same,Upper part (quotation of morphological alterations),"[2]; upper part of the hair follicle near the infundibulum, topical application D0, D1, D4, D6, D8, antibodies 30 to 100 µg/mL in PBS, Eflornithin 100 mg/mL, keratinase 20 mg/mL, D8",++++
